The text below walks through data of paper PMC8041284, “Tunable Methacrylamides for Covalent Ligand Directed Release Chemistry” (Journal of the American Chemical Society, 2021).

For this test, the target named is BTK (Homo sapiens, UniProt Q06187). In words: biochemical. The settings on record: read-out: BTK inhibition (%), 0.75 uM BTK, […] probe 3l, 15 min preincubation.
Chain of BTK (Q06187 402-655 limits assumed): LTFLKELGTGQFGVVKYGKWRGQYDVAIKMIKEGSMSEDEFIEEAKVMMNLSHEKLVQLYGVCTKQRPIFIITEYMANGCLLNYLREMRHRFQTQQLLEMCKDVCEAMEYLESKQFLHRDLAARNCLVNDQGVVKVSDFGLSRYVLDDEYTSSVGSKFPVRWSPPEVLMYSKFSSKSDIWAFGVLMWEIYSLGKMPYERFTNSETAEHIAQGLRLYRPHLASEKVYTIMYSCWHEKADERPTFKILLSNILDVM

A word on the inhibition: it is the drop in the measured response relative to a control, in per cent. As to `CC1(C)CC[C@]2(C(=O)O)CC[C@]3(CO)C(=CC[C@@H]4[C@@]5(C)C[C@H](O)[C@H](O[C@@H]6O[C@H](CO)[C@@H](O)[C@H](O)[C@H]6O)[C@@](C)(C(=O)O)[C@@H]5CC[C@]43C)[C@@H]2C1` [PCM-0216380], the inhibition at 10 µM amounted to 11.6%.
In the case of `COc1ccc(-c2coc3cc(O[C@@H]4O[C@H](CO)[C@@H](O)[C@H](O)[C@H]4O)ccc3c2=O)cc1O` [PCM-0216381], the inhibition at 10 µM is -10%.
Next, `COc1ccc2c(c1O)-c1c(O)c(OC)cc3c1[C@H](C2)[N+](C)(C)CC3` [PCM-0216382]: -1.5%; `O=C(O[C@@H]1O[C@@H]2COC(=O)c3cc(O)c(O)c(O)c3-c3c(cc(O)c(O)c3O)C(=O)O[C@H]([C@H]1O)[C@@H]2O)c1cc(O)c(O)c(O)c1` [PCM-0216383]: 37.1%.
Next, `CCCCCCCCC[C@H](O)CC(=O)CCc1ccc(O)c(OC)c1` [PCM-0216384]: -10.8%; `COc1cc2c(cc1O)C[C@@H]1NCCc3cc(OC)c(O)c-2c31` [PCM-0216385]: 6.2%.
With `C[C@@H]1CCC=C2C(=O)C[C@H]3OOC(C)(C)[C@H]3[C@]21C` [PCM-0216386], the inhibition at 10 µM was 7.7%.
Turning to `Cc1cc(O)c(C(=O)CCC(C)C)c(=O)o1` [PCM-0216387], the inhibition at 10 µM stood at 5.4%.
The figure for `CC1(C)CC[C@]2(C(=O)O)CCC3=C([C@@H](CCl)C[C@@H]4[C@@]5(C)C[C@H](O)[C@H](O)[C@@](C)(C(=O)O)[C@@H]5CC[C@@]34C)[C@@H]2C1` [PCM-0216388] is -4.6%; for `C[C@@H]1O[C@@H](OC[C@H]2O[C@@H](Oc3cc(O)c4c(=O)cc(-c5ccc(O)cc5)oc4c3)[C@H](O[C@@H]3O[C@@H](C)[C@H](O)[C@@H](O)[C@H]3O)[C@@H](O)[C@@H]2O)[C@H](O)[C@H](O)[C@H]1O` [PCM-0216389] it is 13.9%; for `CC(=O)O[C@@H](C[C@@H](C)C1=C2C[C@H](O)[C@H]3[C@@]4(C)CCC(=O)C(C)(C)[C@@H]4CC[C@]3(C)[C@@]2(C)CC1)[C@H]1OC1(C)C` [PCM-0216390] it is -4.6%.
Consider `C/C=C/c1cc(OC)c2c(c1)C(C)C(c1ccc(O)c(OC)c1)O2` (stereo not shown) [PCM-0216391], for which the inhibition at 10 µM turned out to be 19.3%.
The figure for `O=c1cc(-c2ccc(O)c(O)c2)oc2c([C@@H]3O[C@H](CO)[C@@H](O)[C@H](O)[C@H]3O)c(O)cc(O)c12` [PCM-0216392] is -22.4%.
In the case of `CC1(C)CC[C@]2(C(=O)O[C@@H]3O[C@H](CO)[C@@H](O)[C@H](O)[C@H]3O)CC[C@]3(C)C(=CC[C@@H]4[C@@]5(C)CC[C@H](O[C@@H]6O[C@H](C(=O)O)[C@@H](O)[C@H](O)[C@H]6O[C@@H]6O[C@H](CO)[C@@H](O)[C@H](O)[C@H]6O)C(C)(C)[C@@H]5CC[C@]43C)[C@@H]2C1` [PCM-0216395], the inhibition at 10 µM was determined as 4.6%.
In the case of `O=C[C@H](O)[C@@H](O)[C@H](O[C@H]1O[C@H](CO)[C@@H](O[C@H]2O[C@H](CO)[C@@H](O[C@H]3O[C@H](CO)[C@@H](O[C@H]4O[C@H](CO)[C@@H](O)[C@H](O)[C@H]4O)[C@H](O)[C@H]3O)[C@H](O)[C@H]2O)[C@H](O)[C@H]1O)[C@H](O)CO` [PCM-0216396], the inhibition at 10 µM was found to be 3.1%.
On to `CC(C)=CCC[C@](C)(O[C@@H]1O[C@H](CO)[C@@H](O)[C@H](O)[C@H]1O)[C@H]1CC[C@]2(C)[C@@H]1[C@H](O)C[C@@H]1[C@@]3(C)CC[C@H](O)C(C)(C)[C@@H]3CC[C@]12C` [PCM-0216397], for which the inhibition at 10 µM was determined as 11.6%.
For `COc1cc2c(=O)c(-c3ccc(O)cc3)coc2cc1O` [PCM-0216399], the inhibition at 10 µM worked out at 6.2%.
Regarding `C[C@H]1CC[C@@]2(OC1)O[C@H]1C[C@H]3[C@@H]4CC[C@@H]5C[C@@H](O[C@@H]6O[C@H](CO)[C@H](O)[C@H](O)[C@H]6O[C@@H]6O[C@H](CO)[C@@H](O)[C@H](O)[C@H]6O)CC[C@]5(C)[C@H]4CC[C@]3(C)[C@H]1[C@@H]2C` [PCM-0216400], the inhibition at 10 µM worked out at 1.5%.
Next, `OC[C@H]1O[C@@](CO)(OC[C@@]2(O[C@H]3O[C@H](CO)[C@@H](O)[C@H](O)[C@H]3O)O[C@H](CO)[C@@H](O)[C@@H]2O)[C@@H](O)[C@@H]1O` [PCM-0216401]: 21.6%.
On to `COc1cc(-c2oc3cc(O)cc(O)c3c(=O)c2O)ccc1O` [PCM-0216402], for which the inhibition at 10 µM came out at 73.4%.
As for `C[C@@H]1CC[C@@]2(OC1)O[C@H]1C[C@H]3[C@@H]4CC=C5C[C@@H](O[C@@H]6O[C@H](CO)[C@@H](O[C@@H]7O[C@@H](CO)[C@H](O)[C@H]7O)[C@H](O)[C@H]6O[C@@H]6O[C@@H](C)[C@H](O)[C@@H](O)[C@H]6O)CC[C@]5(C)[C@H]4CC[C@]3(C)[C@H]1[C@@H]2C` [PCM-0216403], the inhibition at 10 µM is -10%.
Next, `CC1(C)CC[C@]2(C(=O)O[C@@H]3O[C@H](CO)[C@@H](O)[C@H](O)[C@H]3O)CC[C@]3(C)C(=CC[C@@H]4[C@@]5(C)CC[C@H](O[C@@H]6O[C@H](C(=O)O)[C@@H](O)[C@H](O)[C@H]6O)C(C)(C)[C@@H]5CC[C@]43C)[C@@H]2C1` [PCM-0216404]: 3.1%; `CC(C)=CCC[C@](C)(O)[C@H]1CC[C@]2(C)[C@@H]1[C@H](O)C[C@@H]1[C@@]3(C)CC[C@H](O)C(C)(C)[C@@H]3[C@@H](O[C@@H]3O[C@H](CO)[C@@H](O)[C@H](O)[C@H]3O[C@@H]3O[C@@H](C)[C@H](O)[C@@H](O)[C@H]3O)C[C@]12C` [PCM-0216405]: -5.4%; `C[C@]1(O)C[C@@H](O)[C@@H]2C=CO[C@@H](O[C@@H]3O[C@H](CO)[C@@H](O)[C@H](O)[C@H]3O)[C@@H]21` [PCM-0216407]: -5.4%.
Next, `O=c1cc(-c2ccc(O)cc2)oc2cc(O)c(O)c(O)c12` [PCM-0216408]: 70.3%; `O=C1C[C@@H](c2ccc(O)c(O)c2)Oc2cc(O)cc(O)c21` [PCM-0216409]: 29.3%; `CC(C)c1cc2c(c(O)c1O)[C@@]13CCCC(C)(C)[C@@H]1C[C@@H]2OC3=O` [PCM-0216410]: 10.8%.
Next, `C[C@@H]1O[C@@H](O[C@@H]2[C@@H](O)[C@H](OCCc3ccc(O)c(O)c3)O[C@H](COC(=O)/C=C/c3ccc(O)c(O)c3)[C@H]2O)[C@H](O)[C@H](O)[C@H]1O` [PCM-0216411]: -11.6%; `CC(C)=CCC[C@](C)(O)[C@H]1CC[C@]2(C)[C@@H]1[C@H](O)C[C@@H]1[C@@]3(C)CC[C@H](O)C(C)(C)[C@@H]3[C@@H](O[C@@H]3O[C@H](CO)[C@@H](O)[C@H](O)[C@H]3O)C[C@]12C` [PCM-0216412]: -10.8%; `C=C1C[C@@]23CC[C@H]4[C@@](C)(CCC[C@@]4(C)C(=O)O[C@@H]4O[C@H](CO)[C@@H](O)[C@H](O)[C@H]4O)[C@@H]2CC[C@]1(O[C@@H]1O[C@H](CO)[C@@H](O)[C@H](O)[C@H]1O)C3` [PCM-0216413]: 4.6%.
For `O=CC1OC(=O)c2cc(O)c(O)c(O)c2-c2c(cc(O)c(O)c2O)C(=O)OC1C1OC(=O)c2cc(O)c(O)c(O)c2-c2c(O)c(O)c3oc(=O)c4c(c(O)c(O)c5oc(=O)c2c3c54)-c2c(cc(O)c(O)c2O)C(=O)OCC1O` (stereo not shown) [PCM-0216414], the inhibition at 10 µM came to 27%.
Regarding `COc1cc2oc(-c3ccc(O)cc3)cc(=O)c2c(O)c1[C@@H]1O[C@H](CO)[C@@H](O)[C@H](O)[C@H]1O[C@@H]1O[C@H](CO)[C@@H](O)[C@H](O)[C@H]1O` [PCM-0216416], the inhibition at 10 µM is -15.4%.
In the case of `C=C(C(=O)O)[C@@H]1CC[C@@H](C)[C@@H]2CCC(C)=C[C@@H]21` [PCM-0216417], the inhibition at 10 µM was 0%.
As for `COc1ccc(CCc2cc(OC)c(OC)c(OC)c2)cc1O` [PCM-0216418], the inhibition at 10 µM was -24.7%.
On to `COc1cc(C)c2c(=O)c(-c3ccccc3)coc2c1` [PCM-0216420], for which the inhibition at 10 µM was found to be 32.4%.
Next, `CC(C)=C1CC[C@@H](C)CC1=O` [PCM-0216421]: 14.7%; `C[C@@H]1CC[C@@]2(NC1)O[C@H]1C[C@H]3[C@@H]4CC=C5C[C@@H](O[C@@H]6O[C@H](CO)[C@@H](O[C@@H]7O[C@@H](C)[C@H](O)[C@@H](O)[C@H]7O)[C@H](O)[C@H]6O[C@@H]6O[C@@H](C)[C@H](O)[C@@H](O)[C@H]6O)CC[C@]5(C)[C@H]4CC[C@]3(C)[C@H]1[C@@H]2C` [PCM-0216423]: 17.8%; `COc1cc(C[C@H](C)[C@H](C)Cc2ccc3c(c2)OCO3)ccc1O` [PCM-0216424]: 68.7%.
Turning to `C[C@@]12C[C@@]3(O)O[C@@H](O1)[C@]1(COC(=O)c4ccccc4)[C@H]3C[C@@]12O[C@@H]1O[C@H](COC(=O)c2ccccc2)[C@@H](O)[C@H](O)[C@H]1O` [PCM-0216426], the inhibition at 10 µM is -18.5%.
In the case of `COc1cc2c(cc1O)[C@@H](Cc1ccc(O)c(Oc3ccc(C[C@@H]4c5cc(OC)c(OC)cc5CCN4C)cc3)c1)N(C)CC2` [PCM-0216427], the inhibition at 10 µM is 10.8%.
As for `C/C=C(/C)C(=O)O[C@H]1[C@@H](OC(=O)CC(C)C)c2c(ccc3ccc(=O)oc23)OC1(C)C` [PCM-0216428], the inhibition at 10 µM is 7.7%.
With `C=C(C)[C@@H]1CC[C@]2(C=O)CC[C@]3(C)[C@H](CC[C@@H]4[C@@]5(C)CC[C@H](O)C(C)(C)[C@@H]5CC[C@]43C)[C@@H]12` [PCM-0216430], the inhibition at 10 µM came out at 19.3%.
Next, `COc1c(O)cc2c(c1O)C(=O)c1c(cc(C)c(O)c1OC)C2=O` [PCM-0216431]: 28.6%.
The figure for `C[C@@H]1CC[C@@]2(OC1)O[C@H]1C[C@H]3[C@@H]4CC=C5C[C@@H](O[C@@H]6O[C@H](CO)[C@@H](O[C@@H]7O[C@@H](C)[C@H](O[C@@H]8O[C@@H](C)[C@H](O)[C@@H](O)[C@H]8O)[C@@H](O)[C@H]7O)[C@H](O)[C@H]6O[C@@H]6O[C@@H](C)[C@H](O)[C@@H](O)[C@H]6O)CC[C@]5(C)[C@H]4CC[C@]3(C)[C@@]1(O)[C@@H]2C` [PCM-0216432] is -12.4%; for `C=C1CCC[C@]2(C)Cc3occ(C)c3C[C@@H]12` [PCM-0216433] it is 2.3%; for `CC1(C)CC[C@]2(C(=O)O)CC[C@]3(C)C(=CC[C@@H]4[C@@]5(C)CC[C@H](O[C@@H]6O[C@H](C(=O)O)[C@@H](O)[C@H](O[C@@H]7OC[C@@H](O)[C@H](O)[C@H]7O)[C@H]6O)C(C)(C)[C@@H]5CC[C@]43C)[C@@H]2C1` [PCM-0216434] it is 3.9%.
